# Results from US20180289666A1, “FLAVONOLIGNANS FOR TREATMENT OF AUTOIMMUNE INFLAMMATORY DISEASES” (Macau University of Science and Technology, priority 2017, published 2018).
# Where two headings read alike, the source gives them in different places.
# How the values were obtained:
# [1] = tested on: AIA rats; test: Assessment of liver abnormality and lipid profile in AIA model; type: in vivo, Sprague-Dawley (SD) rats
# Description: Serum ALT, AST, ALP, GGT and total bilirubin were measured by automatic biochemical analyzer (Toshiba Corporation, Tokyo, Japan). Lipids profile including TG, TC, HDL-C, LDL-C/vLDL-C and free fatty acids were measured in the serum. After animals were sacrificed, tissues of liver were fixed in 10% formalin solution, cleared in xylene, embedded in paraffin blocks from which 5 micron-thick sections were obtained. Sections were stained with H&E dye and examined for pathological changes under light microscope by a pathologist blind to the specimens.
# [2] = tested on: key enzymes involved in lipid metabolism in liver; test: Real-time PCR and Western blot of lipid metabolism enzymes in liver of AIA rats; type: in vivo, Sprague-Dawley (SD) rats
# Description: Total RNA was isolated from the frozen liver of the AIA model using TRIzol® Reagent (Life technology, USA). mRNA was purified by binding to poly(dT) magnetic beads using Dynabeads® mRNA DIRECT™ Kit (Life technology, Norway) and reverse transcribed using SuperScript® III reverse transcriptase (Invitrogen, California, USA) as described by the manufacturer. Quantitative real-time PCR was performed using SYBR Green (Sigma-Aldrich, Louis, USA) on the ViiA™ 7 Real-Time PCR System (Applied Biosystems, FosterCity, USA). Quantitative RT-PCR analysis was performed using SYBR Green reagents and ViiA™ 7 Real-Time PCR System. Gene expression levels were calculated from cycle threshold (Ct) values and normalized with control gene GAPDH.
# Liver tissue homogenates of AIA and MCD animal models were lysed in RIPA buffer (50 mM pH 7.4 Tris, 150 mM NaCl, 1% Triton X-100, 1% sodium deoxycholate, 0.1% SDS, sodium orthovanadate, sodium fluoride and EDTA) containing protease inhibitor cocktails (Roche Life Science, USA). Protein concentration was determined using the BCA protein assay kit (BIO-RAD, USA). Equal amounts of total protein were resolved using SDS-PAGE and transferred onto PVDF membranes (Millipore, Darmstadt, Germany). After incubation in a blocking solution containing with 5% (w/v) skim milk (Nestle Carnation, New Zealand) in TBST buffer (10 mM tris-buffered saline and 0.1% Tween20) for 1 h at room temperature and incubated with primary antibodies overnight at 4° C. The membranes were washed three times with 1×TBST solutions and incubated with the appropriate secondary antibodies at room temperature for 45 min, and subsequently visualized with an enhanced chemiluminescence detection kit (SuperSignal™ West Pico Chemiluminescent Substrate, Thermo Scientific, USA). β-actin was used as the loading control for the experimental data analysis.
# [3] = tested on: AIA rats; test: Radiological and histopathological examination of hind paws / ankle joints of AIA rats; type: in vivo, Sprague-Dawley (SD) rats
# Description: (§1) Disease severity and progression were evaluated by measurements of both hind paw volumes with a plethysmometer chamber (Yiyan technology, Jinan, China) and body weight with a 0.1 g precision balance (Sartorius AG, Göttingen, Germany) every two or three days after arthritis induction. For evaluation the arthritic scoring, the lesions of four paws of each rat (i.e., the arthritic signs) were graded by two separate investigators with a semi-quantitative scale: 0 (normal), 4-8 (mild changes), 8-12 (moderate changes), and 12-16 (severe changes) (van Eden W., et. al., J. E. Coligan, Editor. 2001, John Wiley: New York. p. 1-11). Erythrocyte sedimentation rate (ESR) was determined with ICSH (International Council for Standardization in Hematology) selected method with little modifications at day 42. Briefly, 120 μl of blood sample was taken directly and put into 30 μl of 0.109 mol/L sodium citrate, mixed well, and then transferred into a 1.0 mm×100 mm capillary tube (West China Medical University, ChengDu, China). The tubes were held obliquely at an angle of […] and the erythrocyte sedimentation rate was recorded at 15 min. The cytokines levels including IL-1β, TNF-α, IL-17, IL-33, MMP-9, TIMP-1 and PGE2 in serum were measured using commercially available ELISA kits according to the manufacturers instructions. At the end of the experiments, rat knee images were measured (mean of three readings per knee, Meinaite digital calliper, ShangHai, China) using a IVIS Lumina XRMS Series (PerkinElmer, America) (Esser, R. E., et al., Arthritis Rheum, 1995, 38(1): p. 129-38).
# For histopathological assessment, arthritic paws were collected on day 42 after X-ray check, fixed with 10% phosphate buffered saline (PBS) buffered formalin, and decalcified for 3 days in formic acid. Sections from paraffin-embedded tissue were stained with hematoxylin and eosin (H&E). The obtained plasma was stored in −70° C. for metabolomic studies. The relative organ weight ratios (such as liver index, spleen index, kidney index, lung index) were calculated by dividing the weight of each organ with the body weight.
# [4] = tested on: IL-1β, TNF-α, IL-33, MMP-9, TIMP-1 and PGE2 in serum; test: Serum cytokine levels by ELISA in AIA rats; type: in vivo, Sprague-Dawley (SD) rats; conditions: 42 days treatment, versus vehicle-treated AIA rats
# Description: as §1
# [5] = tested on: AIA rats; conditions: for ESR: day 42, read at 15 min, ± SD
# [6] = AIA rats, Silybin 200 mg/kg oral, day 42
smiles,measurement,setting,value
COc1cc([C@H]2Oc3cc([C@H]4Oc5cc(O)cc(O)c5C(=O)[C@@H]4O)ccc3O[C@@H]2CO)ccc1O (stereo in doubt) [Silybin],histopathological assessment of liver tissue,[1]; H&E liver sections,preserved the normal architecture of hepatocytes with light congestion of central vein
same,dyslipidemia (serum lipid profile),[1]; Silybin 200 mg/kg,successfully improved
same,ALP level,"[1]; Silybin 200 mg/kg, P<0.001",markedly reduced
same,AST level,"[1]; Silybin 200 mg/kg, P<0.05",markedly reduced
same,expression of aP2 in the liver,[2]; AIA rats liver,reduced
same,"mRNA and/or protein expression of LPL, CYP7A1, and SREBP1 in liver",[2]; AIA rats liver,greatly repressed
same,overexpression of SREBP1,[2]; AIA rats liver,not modulated
same,"increased mRNA levels of hepatic lipogenesis genes (SREBP1, LXR, FXR)","[2]; AIA rats liver, real-time PCR",attenuated
same,changes of key lipogenic enzyme in both gene and protein levels,"[2]; AIA rats liver, real-time PCR and Western blot",ameliorated changes
same,mRNA level of LPL in liver,"[2]; AIA rats, real-time PCR, increase in the AIA model group",reversed
same,cartilage and joint destruction of the arthritic joints (radiographs),"[3]; Silybin 100 mg/kg or 200 mg/kg, day 42",ameliorated
same,"infiltration of inflammatory cells, synovial hyperplasia","[3]; ankle joint sections, H&E",diminished
same,histological grade of representative ankle joint sections,"[3]; day 42, H&E, FIG. 2C (MTX; Silybin 200 mg/kg), vehicle-treated AIA grade 2/3",0
same,serum level of IL-1β,[4],significant decrease
same,serum level of MMP-9,[4],significant decrease
same,serum level of PGE2,[4],significant decrease
same,serum level of TIMP-1,[4],significant decrease
same,serum level of TNF-α,[4],significant decrease
same,ESR,"[5]; AIA rats, Silybin 100 mg/kg oral daily",34.35 ± 9.25 mm
same,ESR,"[5]; AIA rats, Silybin 200 mg/kg oral daily",significantly (P<0.001) reduced
same,ESR,"[5]; AIA rats, Silybin 200 mg/kg oral daily, listed as SB",28.09 ± 11.14 mm
same,arthritis score,[5]; [6],7.60
same,paw volume,[5]; [6],3.02 mL
same,"relative organ weight ratio (such as liver index, spleen index, kidney index, lung index)","[5]; rat, in vivo",reversed changes
